What all share (type): cell-based
For assay [1], the system named is EL-4 murine lymphoma cells. In words: 31P-NMR measurements on acid-extracts of EL-4 cells induced to undergo cell death. From the text:
Loss of NAD(H) can be explained by DNA-damage induced activation of the enzyme poly-ADP-ribose polymerase (PARP), which polyadenylates various proteins and uses NAD^+ as a substrate. There was also an increase in the resonances from the glycolytic intermediate, fructose-1,6-bisphosphate (FBP), which can be explained by inhibition of the glycolytic enzyme, glyceraldehyde 3-phosphate dehydrogenase (GAPDH), through loss of its coenzyme NAD(H). Inhibition of PARP activity with a competitive inhibitor (20 mM nicotinamide) or 3-aminobenzamide (10 mM) inhibited the loss of NAD(H) and the increase in FBP concentration observed in apoptotic cells.

The test system of assay [2] is EL4 murine lymphoma cells. In words: Cell death by acridine orange and propidium iodide staining / fluorescence microscopy. As to conditions: for morphological features of dying cells: cells treated with both the PARP inhibitor and etoposide, fluorescence microscopy. The method, then: (§1) EL4 murine lymphoma cells (10^8 cells) were treated with 15 μM etoposide (PCH Pharmachemie BV, Harleem), a compound which is known to induce cell death after 16 h exposure. A separate set of cells was treated for 16 hours with 15 μM etoposide plus 20 mM nicotinamide, a known PARP inhibitor. Cell death (apoptosis and necrosis) was confirmed by acridine orange and propidium iodide staining. The cells were washed 3 times with RPMI 1640 growth medium containing 10% FCS at 37° C. and to 2 ml of the etoposide- and etoposide/nicotinamide treated EL4 cell suspension 2 ml of the imaging medium according to Example 2 were added. The final cell suspension thus contained 30 mM hyperpolarised ^13C1-pyruvate and 37.5 mM lactate.

Assay [3] relates to EL4 murine lymphoma cells. In words: 13C-MR spectroscopy of hyperpolarised 13C-label flux between pyruvate and lactate in EL4 cells. As to conditions: cells treated with both the PARP inhibitor and etoposide. The method, then:
as §1
^13C-signal intensities from ^13C-pyruvate and ^13C-lactate in etoposide-treated EL4 cell suspensions as described in 3.1 were followed over a time period of 240 seconds from the time of addition of the imaging medium. […]
^13C-signal intensities from ^13C-pyruvate and ^13C-lactate in etoposide-treated and etoposide/nicotinamide treated EL4 cell suspensions as described in 3.1 were followed over a time period of 240 seconds from the time of addition of the imaging medium. […] The data were fit to a two-site exchange model based on the modified Bloch equations, and the rate constants for the forward and reverse exchange ^13C-fluxes were determined. […]

[4] abbreviates: etoposide-treated cells compared to untreated control cells.

As for `NC(=O)c1cccc(N)c1` [3-aminobenzamide], in assay [1] (3-aminobenzamide 10 mM), the “increase in FBP concentration observed in apoptotic cells” value is listed as “inhibited” and the “loss of NAD(H) observed in apoptotic cells” value is “inhibited”. Besides, the “morphological features of dying cells” value in assay [2] was “still exhibiting the common morphological features of dying cells”. For the same compound, the “ability to transfer the hyperpolarised 13C-label between the pyruvate and lactate pools” value in assay [3] was “maintained”.

Turning to `COc1cc([C@@H]2c3cc4c(cc3[C@@H](O[C@@H]3O[C@@H]5CO[C@@H](C)O[C@H]5[C@H](O)[C@H]3O)[C@H]3COC(=O)[C@H]23)OCO4)cc(OC)c1O` [etoposide], in assay [1] (setting [4]), the “intensity of the resonances from NAD(H)” value is reported as “decrease” and the “resonances from fructose-1,6-bisphosphate (FBP)” value was “increase”. Also, the “cell death (apoptosis and necrosis)” value in assay [2] (15 μM etoposide, 16 h exposure) is recorded as “confirmed”.

As to `NC(=O)c1cccnc1` [nicotinamide], in assay [1] (20 mM nicotinamide), the “increase in FBP concentration observed in apoptotic cells” value is “inhibited” and the “loss of NAD(H) observed in apoptotic cells” value is “inhibited”. Moreover, in assay [2], the “morphological features of dying cells” value is recorded as “still exhibiting the common morphological features of dying cells”. In assay [3], the “ability to transfer the hyperpolarised 13C-label between the pyruvate and lactate pools” value is given as “maintained”.

Source of the values: patent US20100178249A1, “IMAGING MEDIUM COMPRISING LACTATE AND HYPERPOLARISED 13C-PYRUVATE” (priority 2006, published 2010).
